Laboratory results from patent US10851083B2, “Benzoimidazoles as prolyl hydroxylase inhibitors” (Janssen Pharmaceutica NV, priority 2008, dated 2020).

Columns and labels:
[1] = target: human PHD2181-417 (Homo sapiens (Human), UniProt Q9GZT9); test: PHD2 enzyme activity assay ([14C]-succinic acid production); type: biochemical; settings: PHD2181-417 polypeptide, HIF-1α peptide 10 μM, [5-14C]-2-oxoglutaric acid, 30 min pre-incubation, tested 10 μM to 3 nM;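 further: reaction ran 10 min with compound in Tris pH 7.5 buffer with catalase, DTT and ascorbate, labelled succinate freed of leftover 2-oxoglutarate by DNP precipitation, then beta counted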
Chain of human PHD2181-417 (Q9GZT9 181-417): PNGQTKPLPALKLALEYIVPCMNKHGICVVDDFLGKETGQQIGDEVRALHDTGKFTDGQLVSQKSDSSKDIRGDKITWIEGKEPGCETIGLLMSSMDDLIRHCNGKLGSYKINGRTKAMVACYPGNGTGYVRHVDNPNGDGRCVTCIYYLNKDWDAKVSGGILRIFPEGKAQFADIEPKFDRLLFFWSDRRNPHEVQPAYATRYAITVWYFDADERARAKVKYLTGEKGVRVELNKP

[2] = test system: Hep-3B cells; test: Cellular assay: EPO secretion in Hep-3B cells; type: cell-based, human; design: EPO secretion, % of control compound: dose or concentration left out as unconfirmed; settings: 24 h, EPO secretion as percentage of control compound 7-[(4-Chloro-phenyl)-(5-methyl-isoxazol-3-ylamino)-methyl]-quinolin-8-ol; for EPO secretion, % of control compound: Homo sapiens, Hep3B, read-out: Cellular % EPO Stimulation

O=C(O)c1cnn(-c2nc3c(Br)cc(C(F)(F)F)cc3[nH]2)c1 [Example 35, 1-(4-Bromo-6-trifluoromethyl-1H-benzoimidazol-2-yl)-1H-pyrazole-4-carboxylic Acid]
Enzyme pIC50 [1]: 6.8 | EPO secretion, % of control compound [2]: 29.7%

O=C(O)c1cnn(-c2nc3ccc4scnc4c3[nH]2)c1 [Example 125, 1-(8H-Imidazo[4′,5′:3,4]benzo[2,1-d]thiazol-7-yl)-1H-pyrazole-4-carboxylic Acid]
Enzyme pIC50 [1]: 6 | EPO secretion, % of control compound [2]: 46.8%

O=C(O)c1cnn(-c2nc3cc(S(=O)(=O)c4ccccc4)c(C(F)(F)F)cc3[nH]2)c1 [Example 161, 1-(5-Benzenesulfonyl-6-trifluoromethyl-1H-benzoimidazol-2-yl)-1H-pyrazole-4-carboxylic Acid]
Enzyme pIC50 [1]: 7.6 | EPO secretion, % of control compound [2]: 98.2%

O=C(O)c1cnn(-c2nc3cc(S(=O)(=O)Cc4c(Cl)cccc4Cl)c(Cl)cc3[nH]2)c1 [Example 177, 1-[6-Chloro-5-(2,6-dichloro-phenylmethanesulfonyl)-1H-benzoimidazol-2-yl]-1H-pyrazole-4-carboxylic Acid]
Enzyme pIC50 [1]: 7.5 | EPO secretion, % of control compound [2]: 66.6%

O=C(O)c1cnn(-c2nc3cc(S(=O)(=O)Cc4ccc(Cl)c(Cl)c4)c(Cl)cc3[nH]2)c1 [Example 176, 1-[6-Chloro-5-(3,4-dichloro-phenylmethanesulfonyl)-1H-benzoimidazol-2-yl]-1H-pyrazole-4-carboxylic Acid]
Enzyme pIC50 [1]: 7.6 | EPO secretion, % of control compound [2]: 44.2%

CSc1cc2[nH]c(-n3cc(C(=O)O)cn3)nc2cc1F [Example 74, 1-(5-Fluoro-6-methylsulfanyl-1H-benzoimidazol-2-yl)-1H-pyrazole-4-carboxylic Acid]
Enzyme pIC50 [1]: 6.9 | EPO secretion, % of control compound [2]: 77.8%

O=C(O)c1cnn(-c2nc3cc(NCCN4CCOCC4)c(Cl)cc3[nH]2)c1 [Example 134, 1-[6-Chloro-5-(2-morpholin-4-yl-ethylamino)-1H-benzoimidazol-2-yl]-1H-pyrazole-4-carboxylic Acid]
Enzyme pIC50 [1]: 6.3 | EPO secretion, % of control compound [2]: 56.5%

O=C(O)c1cn(-c2nc3cc(Cl)c(Cl)cc3[nH]2)nc1C(F)(F)F [Example 20, 1-(5,6-dichloro-1H-benzoimidazol-2-yl)-3-trifluoromethyl-1H-pyrazole-4-carboxylic Acid]
IC50 ([1]; read-out: Enzyme pIC50 (converted)): > 100 µM | Cellular % EPO Stimulation ([2]; compound at 100 μM (10 μM or 100 μM)): 18.81%

O=C(O)c1cnn(-c2nc3c(F)c(F)c(F)cc3[nH]2)c1 [Example 31, 1-(4,5,6-Trifluoro-1H-benzoimidazol-2-yl)-1H-pyrazole-4-carboxylic Acid]
Enzyme pIC50 [1]: 7 | EPO secretion, % of control compound [2]: 18.2%

CCS(=O)(=O)c1cc2nc(-n3cc(C(=O)O)cn3)[nH]c2cc1OC(F)(F)F [Example 155, 1-(5-Ethylsulfonyl-6-trifluoromethoxy-1H-benzoimidazol-2-yl)-1H-pyrazole-4-carboxylic Acid]
Enzyme pIC50 [1]: 7.6 | EPO secretion, % of control compound [2]: 47.2%
